The text on this data set:
As the polymerization initiator (the water-soluble polymerization initiator), N,N-bis(2-hydroxyethyl)butane-1-aminium=phenyl(2,4,6-trimethylbenzoyl)phosphinate represented by A3, 1-[4-(2-hydroxyethoxy)phenyl]-2-hydroxy-2-methyl-1-propan-1-one represented by A32, and N,N-bis(2-hydroxyethyl)butane-1-aminium=9-oxo-9H thioxanthene-4-carboxylate represented by A57 were used.

Where only a bound is given, the exact number is not on record here.

`CC(C)(O)C(=O)c1ccc(OCCO)cc1` [A32, 1-[4-(2-hydroxyethoxy)phenyl]-2-hydroxy-2-methyl-1-propan-1-one] gave a solubility in water of no less than 1 mass %. Under `Cc1cc(C)c(C(=O)P(=O)(O)c2ccccc2)c(C)c1` [A3, N,N-bis(2-hydroxyethyl)butane-1-aminium=phenyl(2,4,6-trimethylbenzoyl)phosphinate] stands no less than 1 mass %.

The values are drawn from US12479940B2, “Amide compound, polymerizable composition, cured material, and method of manufacturing cured material” (ADEKA CORPORATION, priority 2019, dated 2025).
